Results as given in patent US10822376B2, “Biologically active peptides” (Baxalta Incorporated, priority 2008, dated 2020).
Where a SMILES comes first, the peptide text is derived from it. Bridges are numbered along the chain shown (N, C = ends). [ ]: non-standard residue; d: D form.

Key:
[1] = tested on: human FVIII inhibited plasma; assay: Defined Intrinsic Thrombin Generation Assay (DITGA, triggered by FXIa and phospholipids); assay type: biochemical; details: for Activity in the Defined Intrinsic Thrombin Generation Assay: summary
Source text: (§1) The intrinsic pathway of thrombin generation may be assayed in a thrombin generation assay by including FXIa and phospholipids. In such an assay, which is similar to an activated partial thromboplastin time (aPTT) test, thrombin generation is solely directed through the intrinsic pathway, and is FVIII dependent. A suitable assay is the Defined Intrinsic Thrombin Generation Assay described below. Alternatively, by employing low concentrations of TF and phospholipids instead of FXIa and phospholipids, thrombin is generated by both the extrinsic (tissue factor) and the intrinsic pathways. This form of the thrombin generation assay is the more physiologic one, as both thrombin generation pathways are involved; it is partially FVIII dependent. A suitable assay is the Defined Dual-Pathway Thrombin Generation Assay.
The Defined Intrinsic Thrombin Generation Assay is performed as follows. FVIII activity of human plasma is inhibited by incubating (2 hours, 37° C.) 40 μl of human normal plasma with 10 μl heat inactivated anti-human FVIII plasma raised in goat (600 BU/ml, 6 hours incubated at 56° C.). […] Instead of FVIII-inhibited plasma, FVIII inhibitor patient plasma or several depleted plasmas can be used. The micro-plate is immediately put into a GENios Plus (Tecan) or Safire 2 (Tecan) fluorescence reader and the fluorescence signal (ex 340 nm/em 440 nm) is followed kinetically by reading the plate every 21 seconds.
For calculation of activity equivalent units experiments are performed with dilutions of Factor Eight Inhibitor Bypassing Agent (FEIBA, Baxter AG), Immunate (human FVIII, purified plasma derived) reference standard (Baxter AG) or Recombinate standard (human FVIII, purified recombinant, Baxter AG). A linear fit of the logarithm of FEIBA (FVIII) concentration plotted against thrombin generation time at peak thrombin results in a standard curve. With this curve FEIBA (FVIII) equivalent activity is calculated for a defined peptide concentration. […] Thus, where a concentration of 100 μM is given, the actual concentration in the final assay volume in 40 μM.
Compounds were screened using the “Defined intrinsic thrombin generation assay” in which thrombin generation was quantified in vitro in FVIII-inhibited human plasma in the presence of Factor XIa and phospholipid vesicles. Further compounds were screened in the above assay, and in the “Defined dual-pathway thrombin generation assay” using tissue factor and phospholipids instead of Factor XIa and phospholipids, as described in the specific description.
Various concentrations of each peptide were tested in the defined intrinsic thrombin generation assay using human FVIII inhibited plasma.

[2] = tested on: FVIII-inhibited human normal plasma; assay: Defined Fibrin Deposition Assay (clotting time); assay type: biochemical; details: for Activity in the Defined Fibrin Deposition Assay: summary
Procedure: Another suitable assay to determine procoagulant activity, and particularly FVIII equivalent activity or FVIII inhibitor bypassing activity, is the Defined Fibrin Deposition Assay as described below. […] This assay is particularly useful for determining coagulation FVIII activity because it is conducted in the presence of FVIII-depleted or inhibited plasma.
The Defined Fibrin Deposition Assay is performed as follows. FVIII activity of human citrated plasma (Baxter AG) is first inhibited by incubating (2 hours, 37° C.) 100 μl of human normal plasma with 25 μl heat inactivated anti-human FVIII plasma (300 BU/ml, 6 hours incubated at 56° C.) raised in goat. For each sample to be tested, 125 μl of this FVIII-inhibited human normal plasma is transferred to a pre-warmed cuvette and a 75 μl dilution of a test compound or FEIBA reference standard (Baxter AG) is added. The dilutions of test compound or FEIBA reference standard contain 50 mM imidazole, 100 mM NaCl and 10 mg/ml human serum albumin (Sigma) pH 7.4. As a trigger and for providing procoagulant surfaces 100 μl of a mix of human factor XIa (3.13 nM, Enzyme Research Laboratories) and phospholipid (PL) vesicles (Phosphatidylcholine/Phosphatidylserine 60%/40%, 30 μM; Avanti Polar Lipids) in 50 mM Imidazole, 100 mM NaCl, 10 mg/ml human serum albumin (Sigma) pH 7.4 is included. After incubating for three minutes at 37° C. the coagulation reaction is started by adding 100 μl of 25 mM CaCl2. Clot formation is monitored by a coagulometer (KC10A, Amelung, Germany). In brief, each cuvette rotates slowly above the magnetic detection device and contains a small magnetic metallic ball. Whilst the plasma components remain in solution, the ball sits at the bottom of the cuvette. Over time, a clot begins to form, such that the ball starts to rotate with the developing clot in the rotating cuvette. The “clotting time” is recorded and is defined as the time from addition of the CaCl2) to the time that the developing clot begins to rotate the metallic ball. A standard curve for FEIBA reference standard dilutions is calculated by linear regression of logarithmic FEIBA concentrations (x-axis) against the clotting time (y-axis). Based on the clotting time of each compound concentration FEIBA equivalent activities are calculated according to this standard curve.
Thus, where a concentration of 100 μM is given, the actual concentration in the final assay volume in 25 μM.
Various peptides were tested for the ability to stimulate fibrin deposition in the Defined Fibrin Deposition Assay as described in the specific description.

[3] = tested on: Factor VIII deficient human plasma; assay: DDPTGA (reagent B) in FVIII depleted plasma; assay type: biochemical; details: compounds at 50 μM and 80, 90 or 100 μM; also: key: '+' means stimulates; '−' means does not stimulate
Source text: (§2) Preferably, Reagent C high is used.

[4] = tested on: Factor X deficient human plasma; assay: DDPTGA (reagent B) in FX depleted plasma; details: compounds at 50 μM and 80, 90 or 100 μM
Procedure: (§5) The Defined Dual-Pathway Thrombin Generation Assay is performed as described below, using a commercial test kit (Technothrombin TGA, Technoclone GmbH, Vienna, Austria). […] USA) are incubated four minutes at 37° C. Preferably, Reagent C high is used. Thrombin generation is started by the addition of 40 μl of one of several types of human plasma (37° C.). […] By deviating the original fluorescence data the amount of generated thrombin is calculated from a standard curve constructed using a concentration range of thrombin.
(§6) The in vitro thrombin generation assay based on the cleavage of Z-GGR-AMC to release the fluorophore AMC, described in the specific description, i.e. the Defined Dual-Pathway Thrombin Generation Assay was used to characterise the effect of the compounds in several depleted human plasmas. […] 10 μl peptide dilution, 40 μl TGA substrate and 40 μl plasma were used as described in the specific description.
(§7) The plasmas used in the experiments were fresh frozen and were deficient in Factor V, Factor VII/VIIa, Factor VIII, Factor X or Factor XI (George King Bio-Medical, Inc.). Residual coagulation factor levels of deficient plasmas were specified as less than 1%.
(§8) For each depleted plasma used in the experiments, compounds were tested at two concentrations, namely 50 μM and 80, 90 or 100 μM. A negative control was used, in which no test compound was included.

[5] = tested on: Factor V deficient human plasma; assay: DDPTGA (reagent B) in FV depleted plasma; details: compounds at 50 μM and 80, 90 or 100 μM
Procedure: as §5, §6, §7, §8

FVIII deficient plasma = assay: Defined Dual-Pathway Thrombin Generation Assay (DDPTGA, reagent C high), FVIII deficient plasma; assay type: biochemical, human; details: FVIII deficient plasma
Source text: as §1, §2
(§3) Tissue factor dependency of peak thrombin generation and thrombin peak time was characterised in a composition containing a fixed concentration of phospholipid (namely 3.2 μM). Phospholipid dependency was characterised in a composition containing a fixed concentration of tissue factor (namely 7.2 μM). Peak time (time to peak thrombin generation) was dependent on the concentration of phospholipid or tissue factor. The final version of this assay is as described in the specific description, in which 10 μl reagent C high containing (32 μM phospholipid and 71.6 μM tissue factor) is used in a total volume of 100 μl.
(§4) Further studies were conducted using 3.2 μM phospholipid and 7.2 μM tissue factor in FVIII deficient or inhibited plasma, to characterise the effect on peak thrombin generation and thrombin peak time of various coagulation factor preparations. These studies provided a basis from which to compare the efficacy of the compounds in the assay. Briefly, rFVIII (Recombinate® FVIII from Baxter) was tested at 0, 5, 10, 20, 40 and 80 mU/ml in FVIII deficient plasma. FEIBA was tested at 0, 8, 16, 31, 63 and 125 mU/ml in FVIII inhibited plasma. FVIIa was tested at 0, 0.1, 0.4, 1.6, 6.3 and 25 nM in FVIII inhibited plasma. […] Peak thrombin increased and both the lag time and the thrombin peak time decrease.

FVIII inhibited plasma = assay: Defined Dual-Pathway Thrombin Generation Assay (DDPTGA, reagent C high), FVIII inhibited plasma; assay type: biochemical, human; details: for Peak IIa FEIBA EU / Peak IIa FVIIa EU / Peak Time FEIBA EU / Peak Time FVIIa EU: FVIII inhibited plasma
Source text: as §1, §2, §3, §4

[6] = tested on: Factor XI deficient human plasma; assay: DDPTGA (reagent B) in FXI depleted plasma; details: compounds at 50 μM and 80, 90 or 100 μM
Procedure: as §5, §6, §7, §8

[7] = tested on: Factor VII/VIIa deficient human plasma; assay: DDPTGA (reagent B) in FVII depleted plasma; details: compounds at 50 μM and 80, 90 or 100 μM
Procedure: as §5, §6, §7, §8

FIX−/− mice = assay: Tail clip assay in FIX−/− mice (blood loss, survival); assay type: in vivo, mouse; details: for Survival (%) 2 hours / Survival (%) 4 hours / Survival (%) 24 hours / Survival (%) 48 hours: FIX−/− mice, tail clip

In the case of CC[C@@H](C)[C@H]1NC(=O)[C@H](NC(C)=O)CSSC[C@H](C(=O)N[C@H](Cc2ccc(O)cc2)C(=O)N[C@H](CCC(=O)O)C(N)=O)NC(=O)[C@@H](CC(=O)O)NC(=O)[C@@H](Cc2ccc(O)cc2)NC(=O)[C@@H](Cc2c[nH]c3ccccc23)NC(=O)[C@@H](Cc2ccccc2)NC(=O)[C@@H](CCSC)NC1=O [Peptide B01, Ac-(cimfwydc)-ye-NH2] (Ac-[dC][dI][dM][dF][dW][dY][dD][dC][dY][dE]-NH2; disulfide 1-8), the “Thrombin peak time given as FEIBA equivalent activity” value (“Thrombin peak time given” below) ([1]; peptide 12.5 μM) is reported as 35 mU/ml, the “Thrombin peak time given” value ([1]; peptide 25 μM) is reported as 62 mU/ml and the “Thrombin peak time given” value ([1]; peptide 50 μM) is reported as 89 mU/ml. For the same molecule, the “Thrombin peak time given” value ([1]; peptide 100 μM) was 103 mU/ml, the “Activity in the Defined Intrinsic Thrombin Generation Assay” value [1] was “possess activity” and the “FEIBA EU (from clotting time)” value ([2]; compound 25 μM) was 31 mU/ml. The “FEIBA EU (from clotting time)” value ([2]; compound 50 μM) was 47 mU/ml, the “FEIBA EU (from clotting time)” value ([2]; compound 100 μM) was 94 mU/ml and the “Activity in the Defined Fibrin Deposition Assay” value [2] was “possess activity”.

In the case of Ac-WDLYFEIVW-ttds-E [Peptide A07], the “Thrombin peak time given” value ([1]; peptide 6.25 μM) is reported as 415 mU/ml, the “Thrombin peak time given” value ([1]; peptide 12.5 μM) is reported as 585 mU/ml and the “Thrombin peak time given” value ([1]; peptide 25 μM) is reported as 750 mU/ml. The “Thrombin peak time given” value ([1]; peptide 50 μM) was 965 mU/ml, the “Thrombin peak time given” value ([1]; peptide 100 μM) was 1129 mU/ml and the “Activity in the Defined Intrinsic Thrombin Generation Assay” value [1] was “possess activity”. The “Stimulation of thrombin generation” value [3] was “+”, the “Stimulation of thrombin generation” value [4] was “+” and the “Stimulation of thrombin generation” value [5] was “−”. For the same molecule, the “FEIBA EU (from clotting time)” value ([2]; compound 12.5 μM) was 268 mU/ml, the “FEIBA EU (from clotting time)” value ([2]; compound 25 μM) was 246 mU/ml and the “FEIBA EU (from clotting time)” value ([2]; compound 50 μM) was 199 mU/ml. The “Activity in the Defined Fibrin Deposition Assay” value [2] was “possess activity”, the “Peak IIa FVIII EU” value (FVIII deficient plasma; peptide 50 μM) was “BLS (BLS = below lowest standard.)” and the “Peak Time FVIII EU” value (FVIII deficient plasma; peptide 50 μM) was “BLS (BLS = below lowest standard.)”. For the same molecule, the “Peak IIa FVIII EU” value (FVIII deficient plasma; peptide 100 μM) was “BLS (BLS = below lowest standard.)”, the “Peak Time FVIII EU” value (FVIII deficient plasma; peptide 100 μM) was “BLS (BLS = below lowest standard.)” and the “Peak IIa FEIBA EU” value (FVIII inhibited plasma; peptide 50 μM) was “BLS (BLS = below lowest standard.)”. For the same molecule, the “Peak IIa FVIIa EU” value (FVIII inhibited plasma; peptide 50 μM) was “BLS (BLS = below lowest standard.)”, the “Peak Time FEIBA EU” value (FVIII inhibited plasma; peptide 50 μM) was “BLS (BLS = below lowest standard.)” and the “Peak Time FVIIa EU” value (FVIII inhibited plasma; peptide 50 μM) was “BLS (BLS = below lowest standard.)”. The “Peak IIa FEIBA EU” value (FVIII inhibited plasma; peptide 100 μM) was “BLS (BLS = below lowest standard.)”, the “Peak IIa FVIIa EU” value (FVIII inhibited plasma; peptide 100 μM) was 0.1 nM and the “Peak Time FEIBA EU” value (FVIII inhibited plasma; peptide 100 μM) was “BLS (BLS = below lowest standard.)”. For the same molecule, the “Peak Time FVIIa EU” value (FVIII inhibited plasma; peptide 100 μM) was “BLS (BLS = below lowest standard.)”, the “Activity in the Defined Dual-Pathway Thrombin Generation Assay” value (FVIII inhibited plasma; summary, FVIII inhibited or deficient plasma) was “possess activity” and the “Stimulation of thrombin generation” value [6] was “+”. The “Stimulation of thrombin generation” value [7] was “+”.

In the case of “Immunine: purified plasma FIX preparation (Baxter AG. Austria)”, the “Blood loss over the 62 minutes after tail clip” value (FIX−/− mice; 50, 100 or 200 U/kg i.v.) is reported as “dose-dependent reduction”, the “Bleeding parameters and survival” value (FIX−/− mice; 50-200 U/kg) is reported as “dose dependently improves” and the “Survival (%) 2 hours” value (FIX−/− mice; 50 U/kg i.v.) is reported as 94%. For the same molecule, the “Survival (%) 4 hours” value (FIX−/− mice; 50 U/kg i.v.) was 69%, the “Survival (%) 24 hours” value (FIX−/− mice; 50 U/kg i.v.) was 63% and the “Survival (%) 48 hours” value (FIX−/− mice; 50 U/kg i.v.) was 63%. For the same molecule, the “Survival (%) 2 hours” value (FIX−/− mice; 100 U/kg i.v.) was 100%, the “Survival (%) 4 hours” value (FIX−/− mice; 100 U/kg i.v.) was 100% and the “Survival (%) 24 hours” value (FIX−/− mice; 100 U/kg i.v.) was 94%. For the same molecule, the “Survival (%) 48 hours” value (FIX−/− mice; 100 U/kg i.v.) was 94%, the “Survival (%) 2 hours” value (FIX−/− mice; 200 U/kg i.v.) was 100% and the “Survival (%) 4 hours” value (FIX−/− mice; 200 U/kg i.v.) was 100%. The “Survival (%) 24 hours” value (FIX−/− mice; 200 U/kg i.v.) was 100% and the “Survival (%) 48 hours” value (FIX−/− mice; 200 U/kg i.v.) was 100%.
